Six compounds from patent US10125126B2, “N-cycloalkyl-N-[(heterocyclylphenyl)methylene]-(thio)carboxamide derivatives” (BAYER CROPSCIENCE AG, priority 2012, dated 2018) can be followed below.

The test system of one series is Pyrenophora teres. The experiment in a line: In vivo preventive test on Pyrenophora teres (barley). The note with it: 500 ppm of active ingredient; barley plants; 14 days after contamination. In outline:
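Barley ("Plaisant") grown at 22° C was sprayed at the 1-leaf stage (10 cm) with active ingredient in acetone/tween/DMSO/water, with solvent-only controls. After 24 h, leaves were inoculated with Pyrenophora teres spores (12 000 spores per mL) from 12-day cultures. % efficacy versus controls graded 14 days post-contamination.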

The subject of the next series is Leptosphaeria nodorum. The experiment in a line: In vivo preventive test on Leptosphaeria nodorum (wheat). The note with it: 500 ppm of active ingredient, evaluated 8 days after inoculation. As to the method: In Vivo Preventive Test on Leptosphaeria nodorum Test (Wheat) [table] To produce a suitable preparation of active compound, 1 part by weight of active compound or active compound combination is mixed with the stated amounts of solvent and emulsifier, and the concentrate is diluted with water to the desired concentration. To test for preventive activity, young plants are sprayed with the preparation of active compound or active compound combination at the stated rate of application. After the spray coating has been dried, the plants are sprayed with a spore suspension of Leptosphaeria nodorum. The plants remain for 48 hours in an incubation cabinet at approximately 20° C. and a relative atmospheric humidity of approximately 100%.

The next series deals with Sphaerotheca fuliginea. The experiment in a line: In vivo preventive test on Sphaerotheca fuliginea (powdery mildew on cucurbits). Particulars: 500 ppm of active ingredient, gherkin plants, 12 days after contamination. In outline: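 Gherkin plants ("Vert petit de Paris") grown at 24 °C were sprayed at cotyledon stage Z11; controls received acetone/tween/DMSO/water without active. Inoculation 24 h later by spraying cotyledons with 100 000 spores/mL. Efficacy (%) graded 12 days post-contamination versus controls.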

The subject of another series is Puccinia recondita. Kind of series: In vivo preventive test on Puccinia recondita (brown rust on wheat). The note with it: 500 ppm of active ingredient; wheat plants; 12 days after contamination. A digest of the protocol:
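Wheat plants ("Scipion") at 1-leaf stage, grown at 22° C, were sprayed with compound, then inoculated 24 h later with Puccinia recondita spores (100 000 spores per mL). Efficacy (%) graded 12 days after inoculation relative to solvent-treated controls.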

For a further series, the system named is Venturia inaequalis. Kind of series: In vivo preventive test on Venturia inaequalis (apples). The note with it: 100 ppm of active ingredient, evaluated 10 days after inoculation. The method, then: In Vivo Preventive Test on Venturia inaequalis (apples) [table] To produce a suitable preparation of active compound, 1 part by weight of active compound is mixed with the stated amounts of solvent and emulsifier, and the concentrate is diluted with water to the desired concentration. To test for preventive activity, young plants are sprayed with the preparation of active compound at the stated rate of application. After the spray coating has dried on, the plants are inoculated with an aqueous conidia suspension of the causal agent of apple scab (Venturia inaequalis) and then remain for 1 day in an incubation cabinet at approximately 20° C. and a relative atmospheric humidity of 100%. The plants are then placed in a greenhouse at approximately 21° C. and a relative atmospheric humidity of approximately 90%.

Series [1] can be described thus: log P by HPLC on a reversed-phase column (C 18), EEC Directive 79/831 Annex V.A8. Format: physicochemical. Particulars: for logP: HPLC on reversed-phase column (C 18), 40° C., 0.1% aqueous formic acid and acetonitrile, linear gradient 10% to 90% acetonitrile. A digest of the protocol: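 Column at 40° C; mobile phases 0.1% aqueous formic acid and acetonitrile, linear gradient 10% to 90% acetonitrile. Calibrated with unbranched alkan-2-ones (3 to 16 carbons) of known log P; values from retention times by linear interpolation between two successive alkanones.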

For a further series, the system named is Uromyces appendiculatus. The experiment in a line: In vivo preventive test on Uromyces appendiculatus (bean rust). Particulars: 500 ppm of active ingredient; bean plants; 11 days after contamination. In outline: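 Saxa bean plants at 2-leaf stage, grown at 24° C., sprayed preventively with compound; 24 h later inoculated with U. appendiculatus spores (150 000 spores per mL). Percent efficacy graded 11 days after inoculation versus solvent-treated controls.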

The subject of another series is Septoria tritici. Kind of series: In vivo preventive test on Septoria tritici (wheat). The note with it: 500 ppm of active ingredient; wheat plants; 24 days after contamination. In outline: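 Scipion wheat grown at 22° C, sprayed at 1-leaf stage (10 cm); controls received acetone/tween/DMSO/water without active. Inoculated 24 h later with S. tritici spores (500 000/mL), held 72 h at 18° C, 100% RH, then 21 days at 90% RH. % efficacy vs controls scored 24 days post-inoculation.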

Series [2] concerns Blumeria graminis f.sp. hordei. The experiment in a line: In vivo preventive test on Blumeria graminis (barley). The note with it: 500 ppm of active ingredient, evaluated 7 days after inoculation. As to the method: In Vivo Preventive Test on Blumeria graminis (Barley) [table] To produce a suitable preparation of active compound, 1 part by weight of active compound or active compound combination is mixed with the stated amounts of solvent and emulsifier, and the concentrate is diluted with water to the desired concentration. To test for preventive activity, young plants are sprayed with the preparation of active compound or active compound combination at the stated rate of application. After the spray coating has been dried, the plants are dusted with spores of Blumeria graminis f.sp. hordei.

For another series, the system named is Pyricularia oryzae. Format: in vivo. Particulars: 500 ppm of active ingredient; rice plants; 6 days after contamination.
The test system of the next series is Botrytis cinerea. Kind of series: In vivo preventive test on Botrytis cinerea (grey mould). The note with it: 500 ppm of active ingredient; gherkin plants; 4 to 5 days after contamination. A digest of the protocol: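 Gherkin plants at cotyledon stage Z11 were sprayed with compound, then inoculated 24 h later with Botrytis cinerea spores (50 000 spores per mL in nutrient solution). Plants were kept at 17° C and 90% RH, and percent efficacy versus solvent-treated controls was graded 4 to 5 days after contamination.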

The next series deals with Alternaria brassicae. The experiment in a line: In vivo preventive test on Alternaria brassicae (leaf spot on radish). The note with it: 500 ppm of active ingredient; radish plants; 6 days after contamination. As to the method:
In Vivo Preventive Test on Alternaria brassicae (Leaf Spot on Radish) […] Radish plants (“Pernod Clair” variety), sown in starter cups on a 50/50 peat soil pozzolana substrate and grown at 17° C., are treated at the cotyledon stage by spraying with the active ingredient prepared as described above. Plants, used as controls, are treated with the mixture of acetone/tween/DMSO/water not containing the active material. After 24 hours, the plants are contaminated by spraying the cotyledons with an aqueous suspension of Alternaria brassicae spores (50 000 spores per mL). The spores are collected from a 15-day-old culture. The contaminated radish plants are incubated at 20° C. and at 100% relative humidity. Grading (% of efficacy) is carried out 6 days after the contamination, in comparison with the control plants.

A word on the logP: it is the decadic logarithm of the partition coefficient of the neutral form, usually between octanol and water. Low values mean lower lipophilicity, high ones higher lipophilicity. As for `Cn1nc(C(F)F)c(C(=O)N(Cc2ccccc2C2(C)CO2)C2CC2)c1F` (stereo not shown) [I.3], the Efficacy in the series with Pyrenophora teres was 88%; with Leptosphaeria nodorum it was 92%; with Sphaerotheca fuliginea it was 100%; in the series on Puccinia recondita, 94%; in the series on Venturia inaequalis it was 96%; in the series with Uromyces appendiculatus, 100%. The Efficacy (in the series with Septoria tritici; in series [2]) was 100% in each case. This compound yielded a logP in series [1] of 2.68.
In general, chromatographic logP refers to lipophilicity estimated from chromatographic retention. Higher therefore signals a more lipophilic compound. As to `Cn1nc(C(F)F)c(C(=O)N(Cc2cc(Cl)ccc2C2(C)CO2)C2CC2)c1F` (stereo not shown) [I.4, N-[5-chloro-2-(2-methyloxiran-2-yl)benzyl]-N-cyclopropyl-3-(difluoromethyl)-5-fluoro-1-methyl-1H-pyrazole-4-carboxamide], the Efficacy is 96% in the series with Pyrenophora teres; 80% in the series with Leptosphaeria nodorum; 98% in the series with Puccinia recondita; 100% with Venturia inaequalis; 100% in the series with Uromyces appendiculatus; 100% with Septoria tritici. Besides, in series [2], the Efficacy is recorded as 94%. Also, the pest or weed control at 500 ppm in the series with Sphaerotheca fuliginea (Podosphaera fuliginea, 288 h, read-out: Efficacy) worked out at 100%. In addition, the chromatographic logP in series [1] (logP) was determined as 3.19.
Turning to `Cc1csc(-c2ccc(C(C)C)c(CN(C(=O)c3c(C(F)F)nn(C)c3F)C3CC3)c2)c1` [I.106], the Efficacy in the series on Pyricularia oryzae stood at 80%; in the series on Pyrenophora teres, 93%; in the series on Sphaerotheca fuliginea, 100%; with Septoria tritici, 80%; with Botrytis cinerea, 80%; with Alternaria brassicae, 100%. The compound further gave a log partition coefficient (logP) in series [1] of 4.93.
For the compound `COc1ccsc1-c1ccc(F)cc1CN(C(=O)c1c(C(F)F)nn(C)c1F)C1CC1` [I.119], the Efficacy is recorded as 70% in the series with Pyricularia oryzae; 71% with Pyrenophora teres; 100% in the series with Sphaerotheca fuliginea; 100% with Puccinia recondita; 100% in the series on Uromyces appendiculatus; 90% with Septoria tritici. The compound further displayed a log partition coefficient (logP) in series [1] of 3.63.
For `CC(C)c1ccc(-c2coc3ccccc23)cc1CN(C(=O)c1c(C(F)F)nn(C)c1F)C1CC1` [I.132], the Efficacy was determined as 80% in the series on Pyricularia oryzae; 88% in the series on Pyrenophora teres; 100% with Sphaerotheca fuliginea; 83% in the series with Puccinia recondita; 77% in the series with Uromyces appendiculatus; 100% in the series with Septoria tritici. In addition, the results for the Efficacy in the series with Botrytis cinerea and with Alternaria brassicae were 99% and 97%, respectively. Also, the log partition coefficient (logP) in series [1] is on record as 4.90.
As for `Cn1nc(C(F)F)c(C(=O)N(Cc2ccccc2-c2ccc(Cl)s2)C2CC2)c1F` [I.139], the Efficacy turned out to be 100% in the series with Pyrenophora teres; 94% with Puccinia recondita; 100% in the series on Venturia inaequalis; 100% with Uromyces appendiculatus; 96% with Septoria tritici; 100% with Botrytis cinerea. In addition, in the series on Alternaria brassicae, the Efficacy came to 73%. For the same compound, the lipophilicity (logP) in [1] is on record as 4.32.
